Paper PMC9331957, “Design and Validation of Nanofibers Made of Self-Assembled Peptides to Become Multifunctional Stimuli-Sensitive Nanovectors of Anticancer Drug Doxorubicin” (Pharmaceutics, 2022)

Columns and labels:
[1] = test system: MDA-MB-231; assay: Cell proliferation assay (CellTiter-Glo, ATP luminescence); type: cell-based, human; settings: MDA-MB-231, 72 h
Procedure: The cytotoxicity profiles of the NF-Doxo and NF-Doxo-SPION were established on cancer cell line MDA-MB-231 (triple negative human breast cancer). Triple MDA-MB-231 (ECACC, Salisbury, UK) cells were cultured at 37 °C in an atmosphere containing 5% CO2. The culture medium was made of DMEM supplemented with 10% fetal bovine serum, 1% non-essential amino acid (Hyclone Laboratories, Logan, UT, USA), and 1% penicillin/streptomycin (Gibco®, Life Technologies, Paisley, UK). The cell harvesting was made with trypsin/EDTA (0.05%) (Gibco®, Life Technologies, Paisley, UK) at 80% of confluence.
Cell viability and proliferation were studied, using a luminescent test based on quantification of ATP, using the CellTiter-Glo cell proliferation assay (Promega, Madison, WI, USA). Briefly, 3.000 MDA-MB-231 cells were incubated in 100 μL of medium in 96-well plates for 24 h and then treated with different samples. A H2O2 solution at 10 mM was used as positive control and the culture medium alone was tested as a negative control. Doxo (stock solution at 5.24 mM in PBS) was used as a reference. […] Cell viability was then determined using CellTiter-Glo reagent (Promega, Madison, WI, USA). […] The luminescence values were measured with a gain at 135, with an acquisition at 0.5 s, using a microplate reader (Bio-Tek® instruments, Inc., VT, Santa Clara, CA, USA). […]

[2] = test system: MDA-MB-231 cells; settings: 1 h, 5 µM
Description: To study the uptake of the nanofibers by cancer cells in vitro, the intrinsic fluorescence of the Doxo was followed by means of the confocal spectral imaging (CSI) technique. Briefly, the CSI consists in recording a full fluorescence spectrum from each point of a scanned optical section of the selected cell and then generating the maps (pseudo-color images) reflecting the distribution of spectral parameters (position, shape, width, intensity) in correlation with biochemical events (accumulation, interaction, metabolism, etc). The cells (SKBR3 or MDA-MB-435 cancer cell lines) were plated at a density of 5 × 10^4 cells/well onto cover glasses in 24-well plates for 1 or 6 h. […] They were analyzed under the 50× LWD objective (numerical aperture 0.75; Olympus, Tokyo, Japan) of a LabRam laser scanning confocal microspectrometer (Horiba SA, Villeneuve d’Ascq, Hauts De France, France) equipped with a 491 nm laser source (Cobolt Calypso™), an automated X–Y–Z scanning stage, a low dispersion grating (300 grooves/mm) and an air-cooled EM CCD detector. […] For fluorescence spectral images acquisition from living cells, the living cells were placed under a 50× microscope and scanned through their equatorial optical section (scanning step of 0.8 µm). The full fluorescence spectrum was recorded from each scanned point (typically 30 × 30 spectra per cell, 0.05 s per spectrum). […]

## COc1cccc2c1C(=O)c1c(O)c3c(c(O)c1C2=O)C[C@@](O)(C(=O)CO)C[C@@H]3O[C@H]1C[C@H](N)[C@H](O)[C@H](C)O1 [Doxo, Doxorubicin]
[1]
  IC50 ratio between NF-Doxo and free Doxo (times lower): 10 times
[2]
  fraction of intracellular fluorescence: cytosolic: 24.6
  fraction of intracellular fluorescence: nuclear: 75.4
